Results taken from paper PMC11981937 (Nature, 2025).
Several values for one entry are separate records, joined by “and”; a condition that tells them apart may be missing. Equal entries are not always repeated. Where two headings read alike, the source gives them in different places.

Assays:
SARS-CoV-2 B1 = assay type: in vivo, Syrian golden hamster; details: pre-exposure; for Histopathology score, individual animal / Infectious virus in the lung (TCID50/mg), Log 10, individual animal / Infectious virus in the lung, individual animal / Viral load (viral RNA) in the lung, Copy number, individual animal / Viral load (viral RNA) in the lung, Log 10, individual animal: listed as 87009676-AAA
[1] = assay type: in vivo, Syrian golden hamster; details: pre-exposure; for % body weight change compared to day 0, Avg: day 4 vs day 0, group average; for % body weight change compared to day 0: day 4 vs day 0, individual animals
[2] = female, Syrian golden, hamster, in vivo, po
in vivo = details: rat
in vitro [3] = details: rhesus monkey
in vitro [4] = details: human

C[C@H]1Cn2ncc(C(=O)Nc3cccc(C#N)c3)c2C(=O)N1c1ccc(C(F)(F)c2ccccc2)cc1 [JNJ-9676, (S)-N-(3-cyanophenyl)-5-(4-(difluoro(phenyl)methyl)phenyl)-6-methyl-4-oxo-4,5,6,7-tetrahydropyrazolo[1,5-a]pyrazine-3-carboxamide]
Viral load (viral RNA) in the lung, median Log 10 (SARS-CoV-2 B1; 25 mg/kg BID, n=5): 9.30 Log 10 | Histopathology score, individual animal (SARS-CoV-2 B1; 25 mg/kg BID, 25 mg/kg): 1.5 and 1 | Infectious virus in the lung (TCID50/mg), Log 10, individual animal (SARS-CoV-2 B1; 25 mg/kg BID, 25 mg/kg): -2.00 Log 10 and 4.24 Log 10 and 2.52 Log 10 and 1.28 Log 10 | Infectious virus in the lung, individual animal (SARS-CoV-2 B1; 25 mg/kg BID, 25 mg/kg): 0.01 TCID50/mg and 17417.65 TCID50/mg and 328.03 TCID50/mg and 19.08 TCID50/mg | Viral load (viral RNA) in the lung, Copy number, individual animal (SARS-CoV-2 B1; 25 mg/kg BID, 25 mg/kg): 7.91E+09 and 1.46E+09 and 1.22E+09 and 1.99E+09 and 7.25E+09 | Viral load (viral RNA) in the lung, Log 10, individual animal (SARS-CoV-2 B1; 25 mg/kg BID, 25 mg/kg): 9.90 Log 10 and 9.16 Log 10 and 9.08 Log 10 and 9.30 Log 10 and 9.86 Log 10 | cumulative histopathological lung score (in words) (SARS-CoV-2 B1; 75 mg per kg BID): significantly reduced | Histopathology score, average (SARS-CoV-2 B1; 75 mg/kg BID, n=5): 1.20 | Histopathology score, median (SARS-CoV-2 B1; 75 mg/kg BID, n=5): 1.00 | Infectious virus in the lung (TCID50/mg), average Log 10 (SARS-CoV-2 B1; 75 mg/kg BID, n=5): 1.08 Log 10 | Infectious virus in the lung (TCID50/mg), median Log 10 (SARS-CoV-2 B1; 75 mg/kg BID, n=5): 2.38 Log 10 | Viral load (viral RNA) in the lung, average Log 10 (SARS-CoV-2 B1; 75 mg/kg BID, n=5): 4.57 Log 10 | Viral load (viral RNA) in the lung, median Log 10 (SARS-CoV-2 B1; 75 mg/kg BID, n=5): 3.13 Log 10 | Histopathology score, individual animal (SARS-CoV-2 B1; 75 mg/kg BID, 75 mg/kg): 1 and 1.5 | Infectious virus in the lung (TCID50/mg), Log 10, individual animal (SARS-CoV-2 B1; 75 mg/kg BID, 75 mg/kg): -2.00 Log 10 and 3.24 Log 10 and 3.78 Log 10 and 2.38 Log 10 | Infectious virus in the lung, individual animal (SARS-CoV-2 B1; 75 mg/kg BID, 75 mg/kg): 0.01 TCID50/mg and 1756.82 TCID50/mg and 5984.59 TCID50/mg and 240.02 TCID50/mg | Viral load (viral RNA) in the lung, Copy number, individual animal (SARS-CoV-2 B1; 75 mg/kg BID, 75 mg/kg): 4.93E+02 and 1.36E+03 and 1.66E+06 and 2.19E+08 and 2.75E+02 | Viral load (viral RNA) in the lung, Log 10, individual animal (SARS-CoV-2 B1; 75 mg/kg BID, 75 mg/kg): 2.69 Log 10 and 3.13 Log 10 and 6.22 Log 10 and 8.34 Log 10 and 2.44 Log 10 | Infectious virus in the lung, reduction relative to vehicle (SARS-CoV-2 B1; 8.33 mpk BID, 8.33 mg/kg): 0.50 (p>0.05) log10 TCID50/mg lung and 0.50 (p>0.05) log10 TCID50/mg lung | Viral load in the lung, reduction relative to vehicle (SARS-CoV-2 B1; 8.33 mpk BID, 8.33 mg/kg): 2.01 (p>0.05) log10 copies/mg lung and 2.01 (p>0.05) log10 copies/mg lung | Infectious virus in the lung, reduction relative to vehicle (SARS-CoV-2 B1; 25 mpk BID, 25 mg/kg): 4.41 (p=0.02) log10 TCID50/mg lung and 4.41 (p=0.02) log10 TCID50/mg lung | Viral load in the lung, reduction relative to vehicle (SARS-CoV-2 B1; 25 mpk BID, 25 mg/kg): 3.51 (p=0.0003 log10 copies/mg lung and 3.51 (p=0.0003) log10 copies/mg lung | Infectious virus in the lung, reduction relative to vehicle (SARS-CoV-2 B1; 75 mpk BID, 75 mg/kg): 4.14 (p=0.03) log10 TCID50/mg lung and 4.14 (p=0.03) log10 TCID50/mg lung | Viral load in the lung, reduction relative to vehicle (SARS-CoV-2 B1; 75 mpk BID, 75 mg/kg): 3.01 (p=0.0019) log10 copies/mg lung and 3.01 (p=0.0019) log10 copies/mg lung | % body weight change compared to day 0, Avg ([1]; JNJ-9676 8.33 mpk BID): 1.86% | % body weight change compared to day 0 ([1]; JNJ-9676 8.33 mpk BID, 8.33 mg/kg): 2.5% and 0.6% and 1.8% and 3% and 1.4% | % body weight change compared to day 0, Avg ([1]; JNJ-9676 25 mpk BID): 5.08% | % body weight change compared to day 0 ([1]; JNJ-9676 25 mpk BID, 25 mg/kg): 3.8% and 4.1% and 7.5% and 7.1% and 2.9% | % body weight change compared to day 0, Avg ([1]; JNJ-9676 75 mpk BID): 2.14% | % body weight change compared to day 0 ([1]; JNJ-9676 75 mpk BID, 75 mg/kg): -0.3% and 0.3% and 3.9% and 4.1% and 2.7% | Concentration, individual animal ([2]; 5 mg/kg, 12 h): 153 ng/mL | Concentration, individual animal ([2]; 50 mg/kg, 1 h): 908 ng/mL | Vd (in vivo): 8.4 L/kg | clearance (in vivo): 5.2 mL/min/kg | half-life (in vivo): 19 h | bioavailability (in vivo; po): > 70% | CC50 at 6 days (in vitro [3]): > 20 µM | CC50 at 6 days (in vitro [4]): > 50 µM
